Results as given in ChEMBL document CHEMBL5724914, “Linking interpersonal differences in gut microbiota composition and drug biotransformation activity” (2024).

test: (§1) The drug is tested on Z-029 corresponding to rat gut metagenome with ENA study accession number: PRJEB37062 and ENA sample accession number: ERS12561828 for biotransformation under anaerobic condition. The drug concentrations were measured over 9 timepoints collected between 0 and 24 hours of incubation by liquid-chromatography-coupled mass spectrometry (LC–MS); conditions: 2 µM
Also: call rule not given here.

| SMILES | Bacterial Biotransformation |
| --- | --- |
| COC(=O)[C@H]1[C@H]2C[C@@H]3c4[nH]c5cc(OC)ccc5c4CCN3C[C@H]2C[C@@H](OC(=O)c2cc(OC)c(OC)c(OC)c2)[C@@H]1OC [RESERPINE] | Compound NOT metabolized |
| CC(C)N(CCC(C(N)=O)(c1ccccc1)c1ccccn1)C(C)C.O=P(O)(O)O (stereo not given) [DISOPYRAMIDE PHOSPHATE] | Compound NOT metabolized |

test: as §1, with “on Z-018” for “on Z-029”, “to pig” for “to rat”, “number: ERS12561817” for “number: ERS12561828”; conditions: 2 µM

| SMILES | Bacterial Biotransformation |
| --- | --- |
| COC(=O)[C@H]1[C@H]2C[C@@H]3c4[nH]c5cc(OC)ccc5c4CCN3C[C@H]2C[C@@H](OC(=O)c2cc(OC)c(OC)c(OC)c2)[C@@H]1OC [RESERPINE] | Compound NOT metabolized |
| CC(C)N(CCC(C(N)=O)(c1ccccc1)c1ccccn1)C(C)C.O=P(O)(O)O (stereo not given) [DISOPYRAMIDE PHOSPHATE] | Compound NOT metabolized |

test: as §1, with “Z-012” for “Z-029”, “to” for “to rat gut”, “ERS12561812” for “ERS12561828”; conditions: 2 µM

| SMILES | Bacterial Biotransformation |
| --- | --- |
| COC(=O)[C@H]1[C@H]2C[C@@H]3c4[nH]c5cc(OC)ccc5c4CCN3C[C@H]2C[C@@H](OC(=O)c2cc(OC)c(OC)c(OC)c2)[C@@H]1OC [RESERPINE] | Compound NOT metabolized |
| CC(C)N(CCC(C(N)=O)(c1ccccc1)c1ccccn1)C(C)C.O=P(O)(O)O (stereo not given) [DISOPYRAMIDE PHOSPHATE] | Compound NOT metabolized |

test: as §1, with “Z-007” for “Z-029”, “ERS12561807” for “ERS12561828”; conditions: 2 µM

| SMILES | Bacterial Biotransformation |
| --- | --- |
| COC(=O)[C@H]1[C@H]2C[C@@H]3c4[nH]c5cc(OC)ccc5c4CCN3C[C@H]2C[C@@H](OC(=O)c2cc(OC)c(OC)c(OC)c2)[C@@H]1OC [RESERPINE] | Compound NOT metabolized |
| CC(C)N(CCC(C(N)=O)(c1ccccc1)c1ccccn1)C(C)C.O=P(O)(O)O (stereo not given) [DISOPYRAMIDE PHOSPHATE] | Compound NOT metabolized |

test: as §1, with “Z-005” for “Z-029”, “to” for “to rat gut”, “ERS12561805” for “ERS12561828”; conditions: 2 µM

| SMILES | Bacterial Biotransformation |
| --- | --- |
| COC(=O)[C@H]1[C@H]2C[C@@H]3c4[nH]c5cc(OC)ccc5c4CCN3C[C@H]2C[C@@H](OC(=O)c2cc(OC)c(OC)c(OC)c2)[C@@H]1OC [RESERPINE] | Compound NOT metabolized |
| CC(C)N(CCC(C(N)=O)(c1ccccc1)c1ccccn1)C(C)C.O=P(O)(O)O (stereo not given) [DISOPYRAMIDE PHOSPHATE] | Compound NOT metabolized |

test: as §1, with “on Z-003” for “on Z-029”, “to pig” for “to rat”, “number: ERS12561803” for “number: ERS12561828”; conditions: 2 µM

| SMILES | Bacterial Biotransformation |
| --- | --- |
| COC(=O)[C@H]1[C@H]2C[C@@H]3c4[nH]c5cc(OC)ccc5c4CCN3C[C@H]2C[C@@H](OC(=O)c2cc(OC)c(OC)c(OC)c2)[C@@H]1OC [RESERPINE] | Compound NOT metabolized |
| CC(C)N(CCC(C(N)=O)(c1ccccc1)c1ccccn1)C(C)C.O=P(O)(O)O (stereo not given) [DISOPYRAMIDE PHOSPHATE] | Compound NOT metabolized |

test: as §1, with “on WLS-350” for “on Z-029”, “to human” for “to rat”, “number: ERS12561789” for “number: ERS12561828”; conditions: 2 µM

| SMILES | Bacterial Biotransformation |
| --- | --- |
| COC(=O)[C@H]1[C@H]2C[C@@H]3c4[nH]c5cc(OC)ccc5c4CCN3C[C@H]2C[C@@H](OC(=O)c2cc(OC)c(OC)c(OC)c2)[C@@H]1OC [RESERPINE] | Compound NOT metabolized |
| CC(C)N(CCC(C(N)=O)(c1ccccc1)c1ccccn1)C(C)C.O=P(O)(O)O (stereo not given) [DISOPYRAMIDE PHOSPHATE] | Compound NOT metabolized |

test: as §1, with “on WLS-240” for “on Z-029”, “to human” for “to rat”, “number: ERS12561773” for “number: ERS12561828”; conditions: 2 µM

| SMILES | Bacterial Biotransformation |
| --- | --- |
| COC(=O)[C@H]1[C@H]2C[C@@H]3c4[nH]c5cc(OC)ccc5c4CCN3C[C@H]2C[C@@H](OC(=O)c2cc(OC)c(OC)c(OC)c2)[C@@H]1OC [RESERPINE] | Compound NOT metabolized |
| CC(C)N(CCC(C(N)=O)(c1ccccc1)c1ccccn1)C(C)C.O=P(O)(O)O (stereo not given) [DISOPYRAMIDE PHOSPHATE] | Compound NOT metabolized |

test: as §1, with “on WLS-082” for “on Z-029”, “to human” for “to rat”, “number: ERS12561751” for “number: ERS12561828”; conditions: 2 µM

| SMILES | Bacterial Biotransformation |
| --- | --- |
| COC(=O)[C@H]1[C@H]2C[C@@H]3c4[nH]c5cc(OC)ccc5c4CCN3C[C@H]2C[C@@H](OC(=O)c2cc(OC)c(OC)c(OC)c2)[C@@H]1OC [RESERPINE] | Compound metabolized |
| CC(C)N(CCC(C(N)=O)(c1ccccc1)c1ccccn1)C(C)C.O=P(O)(O)O (stereo not given) [DISOPYRAMIDE PHOSPHATE] | Compound NOT metabolized |

conditions: human gut metagenome, 24 h, 2 µM

| SMILES | Bacterial Biotransformation |
| --- | --- |
| COC(=O)[C@H]1[C@H]2C[C@@H]3c4[nH]c5cc(OC)ccc5c4CCN3C[C@H]2C[C@@H](OC(=O)c2cc(OC)c(OC)c(OC)c2)[C@@H]1OC [RESERPINE] | Compound NOT metabolized |
| CC(C)N(CCC(C(N)=O)(c1ccccc1)c1ccccn1)C(C)C.O=P(O)(O)O (stereo not given) [DISOPYRAMIDE PHOSPHATE] | Compound NOT metabolized |

conditions: human gut metagenome, 24 h, 2 µM; remark: another data set of the same source

| SMILES | Bacterial Biotransformation |
| --- | --- |
| COC(=O)[C@H]1[C@H]2C[C@@H]3c4[nH]c5cc(OC)ccc5c4CCN3C[C@H]2C[C@@H](OC(=O)c2cc(OC)c(OC)c(OC)c2)[C@@H]1OC [RESERPINE] | Compound NOT metabolized |
| CC(C)N(CCC(C(N)=O)(c1ccccc1)c1ccccn1)C(C)C.O=P(O)(O)O (stereo not given) [DISOPYRAMIDE PHOSPHATE] | Compound NOT metabolized |

conditions: human gut metagenome, 24 h, 2 µM; remark: another data set of the same source

| SMILES | Bacterial Biotransformation |
| --- | --- |
| COC(=O)[C@H]1[C@H]2C[C@@H]3c4[nH]c5cc(OC)ccc5c4CCN3C[C@H]2C[C@@H](OC(=O)c2cc(OC)c(OC)c(OC)c2)[C@@H]1OC [RESERPINE] | Compound metabolized |
| CC(C)N(CCC(C(N)=O)(c1ccccc1)c1ccccn1)C(C)C.O=P(O)(O)O (stereo not given) [DISOPYRAMIDE PHOSPHATE] | Compound NOT metabolized |

conditions: human gut metagenome, 24 h, 2 µM; remark: another data set of the same source

| SMILES | Bacterial Biotransformation |
| --- | --- |
| COC(=O)[C@H]1[C@H]2C[C@@H]3c4[nH]c5cc(OC)ccc5c4CCN3C[C@H]2C[C@@H](OC(=O)c2cc(OC)c(OC)c(OC)c2)[C@@H]1OC [RESERPINE] | Compound metabolized |
| CC(C)N(CCC(C(N)=O)(c1ccccc1)c1ccccn1)C(C)C.O=P(O)(O)O (stereo not given) [DISOPYRAMIDE PHOSPHATE] | Compound NOT metabolized |

conditions: human gut metagenome, 24 h, 2 µM; remark: another data set of the same source

| SMILES | Bacterial Biotransformation |
| --- | --- |
| COC(=O)[C@H]1[C@H]2C[C@@H]3c4[nH]c5cc(OC)ccc5c4CCN3C[C@H]2C[C@@H](OC(=O)c2cc(OC)c(OC)c(OC)c2)[C@@H]1OC [RESERPINE] | Compound metabolized |
| CC(C)N(CCC(C(N)=O)(c1ccccc1)c1ccccn1)C(C)C.O=P(O)(O)O (stereo not given) [DISOPYRAMIDE PHOSPHATE] | Compound NOT metabolized |

conditions: human gut metagenome, 24 h, 2 µM; remark: another data set of the same source

| SMILES | Bacterial Biotransformation |
| --- | --- |
| COC(=O)[C@H]1[C@H]2C[C@@H]3c4[nH]c5cc(OC)ccc5c4CCN3C[C@H]2C[C@@H](OC(=O)c2cc(OC)c(OC)c(OC)c2)[C@@H]1OC [RESERPINE] | Compound NOT metabolized |
| CC(C)N(CCC(C(N)=O)(c1ccccc1)c1ccccn1)C(C)C.O=P(O)(O)O (stereo not given) [DISOPYRAMIDE PHOSPHATE] | Compound NOT metabolized |

conditions: human gut metagenome, 24 h, 2 µM; remark: another data set of the same source

| SMILES | Bacterial Biotransformation |
| --- | --- |
| COC(=O)[C@H]1[C@H]2C[C@@H]3c4[nH]c5cc(OC)ccc5c4CCN3C[C@H]2C[C@@H](OC(=O)c2cc(OC)c(OC)c(OC)c2)[C@@H]1OC [RESERPINE] | Compound metabolized |
| CC(C)N(CCC(C(N)=O)(c1ccccc1)c1ccccn1)C(C)C.O=P(O)(O)O (stereo not given) [DISOPYRAMIDE PHOSPHATE] | Compound NOT metabolized |

conditions: human gut metagenome, 24 h, 2 µM; remark: another data set of the same source

| SMILES | Bacterial Biotransformation |
| --- | --- |
| COC(=O)[C@H]1[C@H]2C[C@@H]3c4[nH]c5cc(OC)ccc5c4CCN3C[C@H]2C[C@@H](OC(=O)c2cc(OC)c(OC)c(OC)c2)[C@@H]1OC [RESERPINE] | Compound metabolized |
| CC(C)N(CCC(C(N)=O)(c1ccccc1)c1ccccn1)C(C)C.O=P(O)(O)O (stereo not given) [DISOPYRAMIDE PHOSPHATE] | Compound NOT metabolized |

conditions: human gut metagenome, 24 h, 2 µM; remark: another data set of the same source

| SMILES | Bacterial Biotransformation |
| --- | --- |
| COC(=O)[C@H]1[C@H]2C[C@@H]3c4[nH]c5cc(OC)ccc5c4CCN3C[C@H]2C[C@@H](OC(=O)c2cc(OC)c(OC)c(OC)c2)[C@@H]1OC [RESERPINE] | Compound NOT metabolized |
| CC(C)N(CCC(C(N)=O)(c1ccccc1)c1ccccn1)C(C)C.O=P(O)(O)O (stereo not given) [DISOPYRAMIDE PHOSPHATE] | Compound NOT metabolized |

conditions: human gut metagenome, 24 h, 2 µM; remark: another data set of the same source

| SMILES | Bacterial Biotransformation |
| --- | --- |
| COC(=O)[C@H]1[C@H]2C[C@@H]3c4[nH]c5cc(OC)ccc5c4CCN3C[C@H]2C[C@@H](OC(=O)c2cc(OC)c(OC)c(OC)c2)[C@@H]1OC [RESERPINE] | Compound NOT metabolized |
| CC(C)N(CCC(C(N)=O)(c1ccccc1)c1ccccn1)C(C)C.O=P(O)(O)O (stereo not given) [DISOPYRAMIDE PHOSPHATE] | Compound metabolized |

conditions: human gut metagenome, 24 h, 2 µM; remark: another data set of the same source

| SMILES | Bacterial Biotransformation |
| --- | --- |
| COC(=O)[C@H]1[C@H]2C[C@@H]3c4[nH]c5cc(OC)ccc5c4CCN3C[C@H]2C[C@@H](OC(=O)c2cc(OC)c(OC)c(OC)c2)[C@@H]1OC [RESERPINE] | Compound metabolized |
| CC(C)N(CCC(C(N)=O)(c1ccccc1)c1ccccn1)C(C)C.O=P(O)(O)O (stereo not given) [DISOPYRAMIDE PHOSPHATE] | Compound NOT metabolized |
